Results published in patent publication US7183320B2, “Benzoylsulfonamides and sulfonylbenzamidines for use as antitumour agents” (Eli Lilly and Company, priority 2002, dated 2007).

Key:
Type in all cases: in vivo
[1] = tested on: VEGF-induced neoangiogenesis; assay: Rat corneal micropocket assay, VEGF disks; details: 160 mg/kg orally by gavage once per day, days 1 through 10; Fisher 344 female rats
Experimental: Rat Corneal Micropocket Assay
Fisher 344 female rats (145–155 grams; Taconic, Inc., Germantown, N.Y.) were anesthesized with acepromazine (2.5 mg/kg, ip) 20 minutes prior to initiation of 2–3% isoflurane/oxygen inhalation. The body temperature was maintained with a circulating hot water pad. The surgery was performed using an ophthalmic operating microscope (OMS.75 Operating Microscope, TopCon Corporation, Japan). A scalpel blade (#15) was used to make a vertical half-thickness linear corneal incision just lateral to the center of the eye. […] A pocket was formed in the cornea using blunt dissection with corneal scissors (Roboz, Rockville, Md.). Nitrocellulose filters ([…], Millipore, Bedford, Mass.) were cut into small disks using a 20 gauge needle punch. The disks were soaked in 2 μl of human VEGF solution ([…]; R&D Systems) or human basic fibroblast growth factor (0.20 μg/μl; R&D Systems) for 10 minutes on ice. Using forceps, the disks impregnated with the angiogenic factor (VEGF or bFGF) were inserted into the corneal pocket so that the disk is firmly covered with corneal epithelium. […] The images were analyzed by converting the area of interest to high contrast black and white reversed image and counting the bright pixels as a determination of the vascular area. […]

[2] = tested on: HUMAN PROSTATE LNCaP; assay: Early stage human prostate LNCaP xenograft (Table VII); details: total dose 840 mg/kg: 140 mg/kg/injection IV on days 3, 5, 7, 9, 10, and 11, Balb/C SCID female mice
Text: (§1) Conventional Murine Tumor and Human Tumor Xenouraft Assays
(§2) Inhibition of tumors transplanted into mice is an accepted procedure for studying the efficacy of antitumor agents (Corbett, et al., In vivo Methods for Screening and Preclinical Testing; Use of rodent solid tumors for drug discovery., In: Anticancer Drug Development Guide: Preclinical Screening, Clinical Trials, and Approval, B. Teicher (ed), Humana Press Inc., Totowa, N.J., Chapter 5, pages 75–99 (1997); (Corbett, et al., Int., J. Parmacog., 33, Supplement, 102–122 (1995)). Murine tumors or human xenographs were implanted essentially as described by Corbett in In vivo Methods for Screening and Preclimical Testing; Use of rodent solid tumors for drug discovery. Briefly, the murine tumor or human xenograph was implanted subcutaneously using either 12-gauge trocar implants or counted number of cells. The location for the trocar insertion is midway between the axillary and inguinal region along the side of the mouse. The trocar is slipped approximately ¾ of an inch subcutaneously up toward the axilla before discharging the tumor fragment, and pinching the skin as the trocar is removed., Alternatively, human tumor cells prepared from a […] of donor tumors (5×10^6 cells) were implanted subcutaneously in a hind-leg of a male or female nude mouse (Charles River). Either a test compound in vehicle or vehicle alone was administered by intravenous bolus injection (iv), intraperitoneal injection (ip), or oral gavage (po). Each treatment group, as well as a group of untreated control animals, consisted of five animals per group in each experiment. Subcutaneous tumor response was monitored by tumor volume measurement performed twice each week over the course of the experiment (60–120 days). Body weights were taken as a general measure of toxicity. The subcutaneous tumor data were analyzed by determining the median tumor weight for each treatment group over the course of the experiment and calculating the tumor growth delay as the difference in days for the treatment versus the control tumors to reach a volume of either 500 or 1000 mm^3.
(§3) The compound of Example 110 was tested against a variety of murine and human tumors substantially as described supra. The parameters measured in each experiment are summarized in the following paragraphs. • Tumor Weight(mg)=(a×b^2)/2 where a=tumor length (mm) and b=tumor width (mm). • Tumor Growth Delay=T−C where T is the median time (days) required for the treatment group tumors to reach a predetermined size, and C is the median time (days) for the control group tumors to reach the same size. Tumor-free survivors are excluded from this calculation, and are tabulated separately (Tumor Free).
(§4) [formula] • where Tumor Growth Delay is as previously defined and Td is tumor volume doubling time (days), estimated from the best fit straight line from a log-linear growth plot of the control group of tumors in exponential growth (100–800 mg range) • % T/C mass—The treatment and control groups are measured when the control group tumors reach approximately 700 to 1200 mg in size (median group). The median tumor weight of each group is determined (including zeros). The T/C value in percent is an indication of antitumor effectiveness. A T/C≦42% is considered significant antitumor activity. A T/C<10% is considered to indicate highly significant antitumor activity. • Body Weight Loss Nadir—A body weight loss nadir (mean of group) of greater than 20% or drug deaths greater than 20% are considered to indicate an excessively toxic dosage in single course trials. • Activity Rating—the Activity Rating is derived from the Log Kill according to the following table: […]

[3] = tested on: HUMAN SQUAMOUS CELL LUNG CARCINOMA MRI-H165; assay: Early stage human squamous cell lung carcinoma MRI-H165 xenograft (Table XI); details: total dose 600 mg/kg: 100 mg/kg/injection IV on days 3–5 and 10–12; Balb/C SCID female mice
Text: as §1, §2, §3, §4

[4] = tested on: TAXOL RESISTANT HUMAN COLON ADENOCARCINOMA #15/MDR; assay: Early stage taxol resistant human colon adenocarcinoma #15/MDR xenograft (Table XII); details: total dose 500 mg/kg: 100 mg/kg/injection IV on days 3–5 and 13–14; Balb/C SCID female mice
Text: as §1, §2, §3, §4

O=C(NS(=O)(=O)c1ccccc1)c1ccc(Cl)cc1Cl [Example 110, N-[2,4-dichlorobenzoyl]phenylsulfonamide]
inhibition of VEGF-induced neoangiogenesis [1]: very effective inhibitor
% BODY WT LOSS AT NADIR [2]: +5.6%
% T/C MASS [2]: 0%
ACTIVITY RATING [2]: ++++ (HIGHLY ACTIVE >2.8)
DRUG DEATHS [2]: 0/5
TUMOR FREE AT DAY 185 [2]: 4/5
GROWTH DELAY (DAYS) ([2]; one mouse): 60^b DAYS
LOG KILL ([2]; one mouse): 7.2^b
% BODY WT LOSS AT NADIR [3]: −2.1% ^
% T/C MASS [3]: 0%
ACTIVITY RATING [3]: ++++ (HIGHLY ACTIVE >2.8)
DRUG DEATHS [3]: 0/5
GROWTH DELAY [3]: 31 days
LOG KILL [3]: 3.7
TUMOR FREE AT DAY 55 [3]: 0/5
% BODY WT LOSS AT NADIR [4]: +2.1% ^
% T/C MASS [4]: 10%
ACTIVITY RATING [4]: ++ (1.3–1.9)
DRUG DEATHS [4]: 0/5
GROWTH DELAY [4]: 11 days
LOG KILL [4]: 1.4
TUMOR FREE AT DAY 38 [4]: 0/5
